Measurements reported in ChEMBL document CHEMBL3046453, “Abdominal color of the Asian citrus psyllid, Diaphorina citri, is associated with susceptibility to various insecticides” (2013).
≈ marks a conversion by molar mass, not a printed value.

Tests used:
Type in all cases: functional
Conditions in all cases: for LC50: Diaphorina citri, 48 h
Diaphorina citri [1] = test: Insecticidal activity against blue/green Diaphorina citri in citrus leaf assessed as mortality after 48 hr by leaf-dip petridish bioassay method
Diaphorina citri [2] = test: Insecticidal activity against orange/yellow Diaphorina citri in citrus leaf assessed as mortality after 48 hr by leaf-dip petridish bioassay method
Diaphorina citri [3] = test: Insecticidal activity against gray/brown Diaphorina citri in citrus leaf assessed as mortality after 48 hr by leaf-dip petridish bioassay method

| SMILES | LC95 (Diaphorina citri [1]) [µg/mL] | LC50 (Diaphorina citri [1]) [µg/mL] | LC95 (Diaphorina citri [2]) [µg/mL] | LC50 (Diaphorina citri [2]) [µg/mL] | LC95 (Diaphorina citri [3]) [µg/mL] | LC50 (Diaphorina citri [3]) [µg/mL] |
| --- | --- | --- | --- | --- | --- | --- |
| CC1(C)C(C(=O)OC(C#N)c2cccc(Oc3ccccc3)c2)C1(C)C (centres undefined) [FENPROPATHRIN] | 29.21 (≈ 83.6 µM) | 0.85 (≈ 2.43 µM) |  |  |  |  |
| O=[N+]([O-])/N=C1\NCCN1Cc1ccc(Cl)nc1 [IMIDACLOPRID] | 1.84 (≈ 7.2 µM) | 0.4 (≈ 1.56 µM) | 1.09 (≈ 4.26 µM) | 0.18 (≈ 0.704 µM) | 1.59 (≈ 6.22 µM) | 0.41 (≈ 1.6 µM) |
| CCOP(=S)(OCC)Oc1nc(Cl)c(Cl)cc1Cl [CHLORPYRIFOS] | 12.12 (≈ 34.6 µM) | 3.93 (≈ 11.2 µM) | 2.67 (≈ 7.62 µM) | 0.92 (≈ 2.62 µM) | 11.62 (≈ 33.1 µM) | 3.62 (≈ 10.3 µM) |
